Source: patent US11801235B2, “Methods and compositions for delivery of biotin to mitochondria” (priority 2020, dated 2023)
Peptide text beside a SMILES is read from it. * marks the point of attachment. Biotin = O=C1N[C@H]2[C@H](CS[C@H]2CCCCC(=O)*)N1

Tests used:
HK-2 cells [1] = experiment: Cellular ATP in extreme starvation model (serum-free 5% DMEM in PBS, 3 days); assay type: cell-based, human; settings: 10 nM
Protocol: ATP was measured using the ApoSENSOR ATP Bioluminescence Assay Kit (BioVision) according to manufacturer's protocol. This kit utilizes luciferase to catalyze the formation of light from ATP and luciferin. Briefly, cells were treated with 100 ul of Nuclear Releasing Buffer for 5 min at RT with gentle shaking. 10 ul of ATP Monitoring Enzyme was added to cell lysate, and luminescence was measured using a microplate reader (SpectraMax iD3, Molecular Device). ATP levels were normalized to the serum-free DMEM control group (arbitrarily set to 1.0).
The second model uses an extreme starvation model whereby HK-2 cells were cultured in 96-well plates in serum-free 5% DMEM in PBS (phosphate-buffered saline) for 3 days. Cells were treated with 10 nM free biotin or peptide-conjugated biotin molecules. All treatments were carried out with N=6 in each experiment.

HK-2 cells [2] = experiment: Cell viability (Alamar Blue) after 11 days of serum starvation; assay type: cell-based, human; settings: 10 nM, vs serum-free control
Protocol: In the first model, HK-2 cells were cultured in 96-well plates in serum-free DMEM alone or in serum-free DMEM containing 10 nM of SPN11 or SPN12 for 11 days. Culture medium was replaced every 3 days.
(§1) Cell viability was measured using the Alamar Blue Cell Proliferation Assay (Bio-Rad), according to manufacturer's protocol. Alamar Blue uses resazurin to measure reducing power of living cells. The weakly fluorescent resazurin is reduced to the highly fluorescent resorufin when reduced by cellular metabolism. Briefly, alamar blue reagent (10 ul) was added to the culture medium and incubated for 1 h at 37° C. Fluorescence from resorufin (Ex/Em 530/590 nm) was detected using a microplate reader (SpectraMax iD3, Molecular Devices).

HK-2 cells [3] = experiment: Mitochondrial potential (TMRM) of cells at the scratch edge; assay type: cell-based, human; settings: 10 nM, serum-free, 24 hours after scratch
Text: Rapidly dividing cells can need ATP to support the synthesis of important building blocks. Tissue injury can cause rapid mitochondrial depolarization that compromises ATP production and/or results in cell death. The loss of ATP can further impair cell proliferation and/or tissue repair. Mitochondrial potential can be monitored in the cells at the edge of the scratch area using the cell-permeable potential-dependent dye TMRM (tetramethylrhodamine methyl ester). TMRM can accumulate in negatively charged polarized mitochondria and can be detected as red fluorescence. To mimic the microenvironment of wounds in vitro, serum-free medium was used in the scratch assay. […] HK-2 cells were then incubated with 5 nM TMRM in DMEM without phenol red and incubated for 30 min. Cells were then covered with live cell image buffer and imaged using Nikon Eclipse Ti2 fluorescent microscope (20× objective).

ARPE-19 cells [4] = experiment: In vitro scratch assay (scratch area); assay type: cell-based, human
Text: (§2) Certain exemplary peptide-conjugated biotin molecules can accelerate wound healing in cell cultures. The in vitro scratch assay is an easy and well-developed method to measure cell proliferation and migration over a “wound area” in vitro. This assay involves creating a “scratch” in a cell monolayer with a pipette tip and then examining the rate at which cells proliferate and migrate to close the scratch.
(§3) The scratch area was examined immediately (day 0) using a Nikon Eclipse Ti2 fluorescence microscope. Six different field were captured for each sample using 4×objective. The scratch area (cell-free zone) was calculated using ImageJ software, an open-source Java image processing program inspired by NIH Image (National Institute of Health). The scratch area was re-examined after 24 hours (day 1), and the area was normalized to the area determined on day 0 for the same sample. All results were calculated as change from no-treatment control and averaged for the six fields.

[5] = test system: Human retinal pigment epithelial cells (ARPE-19); experiment: Mitochondrial potential (TMRM/MitoView Green) after serum starvation; assay type: cell-based; settings: ARPE-19 cells, 3 days of serum starvation, then 1 uM for 2 hours
Protocol: ARPE-19 cells were seeded in 35 mm glass plates at an initial density of 5×10^4 cells. […] Cells were then incubated in serum-free DMEM/F12 alone (control group) or DMEM/F12 containing 1 uM of SPN12 or SPN15 for 2 hours.
To determine mitochondrial potential, live cells were incubated with 5 nM tetramethylrhodamine methyl ester (TMRM, #70017, Biotium, Fremont, CA) in DMEM without phenol red. TMRM is a potential-dependent fluorescent dye (Ex/Em=548/573). TMRM accumulates in negatively charged polarized mitochondria and can be detected as red fluorescence. Total mitochondria were imaged with a mitochondrial potential-independent fluorescent dye (100 nM MitoView Green; Ex/Em=490/523; #70054, Biotium, Fremont CA). Hoechst 33342 (10 ug/ml, Novus Biologicals, Centennial, CO) was added to stain nuclei. Live cells were covered with phosphate buffer and imaged using the Nikon Eclipse Ti fluorescent microscopy using the 60×water objective.

HK-2 cells [6] = experiment: In vitro scratch assay (scratch area); assay type: cell-based, human; settings: 10 nM
Protocol: as §2
3×10^5 cells were plated per well in 6-well plates in DMEM at 37° C. in a humidified incubator with 5% CO2 for one day prior to the experiment. To mimic the microenvironment of wounds in vitro, serum-free medium was used in the scratch assay. On the day of the scratch assay, the medium was replaced with serum-free DMEM, and a line scraped across the cell monolayer using a p1000 pipette tip. Cells were washed to remove cell debris and replaced with DMEM alone (control), or DMEM containing 10 nM biotin or peptide-conjugated biotin molecules.
as §3

[7] = test system: HK-2 human renal epithelial cell monolayers; experiment: Cell proliferation at scratch edge (PCNA staining); assay type: cell-based; settings: HK-2 cells, 10 nM, serum-free, 24 hours after scratch
Text: (§4) Re-epithelialization of a wound area require proliferation of cells at the wound edge, which can be impaired in most wounds due to lack of blood flow to deliver nutrients and/or growth factor(s) that can be necessary for cell proliferation. Cell proliferation in the wound edge can be monitored by proliferating cell nuclear antigen (PCNA) staining. To mimic the microenvironment of wounds in vitro, serum-free medium was used for the scratch assay in cell cultures.
(§5) Proliferating cells were identified by immunostaining with antibody to proliferating cell nuclear antigen (PCNA) according to standard procedures as presented in IHC World. PCNA staining was performed using the same plate of cells after determination of scratch area. […] All cell nuclei stain blue with Hoechst, but nuclei of proliferating cells stain red. The number of proliferating cells per field was quantified by the intensity of red nuclear stain and normalized to intensity of blue nuclear stain (determined by Nikon NIS-Elements Imaging Software).

[8] = test system: ARPE-19 human retinal pigment epithelial cell monolayers; experiment: Cell proliferation at scratch edge (PCNA staining); assay type: cell-based; settings: ARPE-19 cells, 10 nM, serum-free, 24 hours after scratch
Text: as §4, §5

ARPE-19 cells [9] = experiment: Cell number and viability after 30 days of serum deprivation; assay type: cell-based, human; settings: 10 nM
Protocol: as §1
In the second model, ARPE-19 cells were grown in serum-free DMEM in the absence or presence of peptide-conjugated biotin molecules for 30 days. Serum-free media was supplemented with 10 nM of SPN12, SPN15 or SPN16 compounds (all at 10 nM) was replaced every 3 days. Culture medium was replaced every 3 days.

[10] = test system: ARPE-19 human retinal pigment epithelial cells; experiment: Mitochondrial localization: co-localization with cytochrome c oxidase subunit 4 (COX4); assay type: cell-based; settings: ARPE-19 cells, 1 uM, 2 hours, serum-free DMEM/F12
Protocol: Cells were fixed with 4% PFA at RT for 10 min and then permeabilized with 0.1% Triton X-100 at RT for 10 min. Cells were blocked with 2% BSA (bovine serum albumin) at RT for 30 min, and then incubated with primary antibody for cytochrome c oxidase subunit 4 (COX4), a major protein complex expressed on the inner mitochondrial membrane. The rabbit polyclonal COX4 antibody (Invitrogen PAS-29992, Waltham, MA) was used at 1:500 dilution in 2% BSA at 4° C. overnight.

N=C(N)NCCC[C@H](NC(=O)[C@H](Cc1c[nH]c2ccccc12)NC(=O)CCCC[C@@H]1SC[C@@H]2NC(=O)N[C@@H]21)C(=O)N[C@@H](Cc1c[nH]c2ccccc12)C(=O)N[C@@H](CCCCNC(=O)CCCC[C@@H]1SC[C@@H]2NC(=O)N[C@@H]21)C(N)=O [SPN12, D-Biotin-L-Trp-L-Arg-L-Trp-L-Lys(biotinyl)-NH2] (Biotin-WRWK(Biotin)-NH2)
ATP content compared to free biotin under extreme starvation, FIG. 12 (HK-2 cells [1]): doubling
improvement of cell viability in the absence of serum, FIG. 7 (HK-2 cells [2]): 35%
number of cells with good mitochondrial potential (TMRM) at scratch edge, images FIG. 24 (HK-2 cells [3]): increased the number of cells with good mitochondrial potential
mitochondrial potential (red fluorescence) normalized to nuclear number, FIG. 25 (HK-2 cells [3]; compared to control): significantly increased mitochondrial potential
wound healing (scratch closure), FIG. 18 (ARPE-19 cells [4]): accelerated wound healing
mitochondrial potential (TMRM) and filamentous mitochondrial network, FIG. 14 [5]: restore mitochondrial potential in all cells
scratch area after 24 hours, microscopic images FIG. 15 (HK-2 cells [6]; serum-free DMEM, 24 hours after mechanical scratch): almost completely closed
closure of the scratch area compared to control, FIG. 16 and FIG. 17 (HK-2 cells [6]; serum-free, 24 hours): significantly accelerated the closure of the scratch area
effectiveness in reducing scratch area compared to free biotin, FIG. 16 and FIG. 17 (HK-2 cells [6]; serum-free, 24 hours): twice as effective
number of proliferating cells normalized to all nuclei, FIG. 21 ([7]; compared to control or biotin): doubled
number of proliferating (PCNA-positive) cells at the edge of the scratch, images FIG. 20 ([7]; compared to free biotin): increased the number of proliferating cells
number of proliferating (PCNA-positive) cells at the edge of the scratch, images FIG. 22 [8]: increased the number of proliferating cells
cell viability after serum deprivation compared to control, FIG. 9 (ARPE-19 cells [9]; 30 days of serum deprivation): doubled
cell number after prolonged serum deprivation, microscopic images FIG. 8 (ARPE-19 cells [9]; 30 days serum-free): increased cell number
co-localization of biotin staining with COX4 staining (inner mitochondrial membrane), FIG. 6 [10]: co-localization
